This note sets out measurements from patent US9499553B2 (CHUGAI SEIYAKU KABUSHIKI KAISHA, priority 2013, dated 2016).

pIC50: −log10 of the molar value. Where two headings read alike, the source gives them in different places.

The assay has as its target T1, human NaPi-IIb (Homo sapiens, UniProt O95436).
T1 construct: expressed in transfected cells
T1 sequence (O95436 1-690): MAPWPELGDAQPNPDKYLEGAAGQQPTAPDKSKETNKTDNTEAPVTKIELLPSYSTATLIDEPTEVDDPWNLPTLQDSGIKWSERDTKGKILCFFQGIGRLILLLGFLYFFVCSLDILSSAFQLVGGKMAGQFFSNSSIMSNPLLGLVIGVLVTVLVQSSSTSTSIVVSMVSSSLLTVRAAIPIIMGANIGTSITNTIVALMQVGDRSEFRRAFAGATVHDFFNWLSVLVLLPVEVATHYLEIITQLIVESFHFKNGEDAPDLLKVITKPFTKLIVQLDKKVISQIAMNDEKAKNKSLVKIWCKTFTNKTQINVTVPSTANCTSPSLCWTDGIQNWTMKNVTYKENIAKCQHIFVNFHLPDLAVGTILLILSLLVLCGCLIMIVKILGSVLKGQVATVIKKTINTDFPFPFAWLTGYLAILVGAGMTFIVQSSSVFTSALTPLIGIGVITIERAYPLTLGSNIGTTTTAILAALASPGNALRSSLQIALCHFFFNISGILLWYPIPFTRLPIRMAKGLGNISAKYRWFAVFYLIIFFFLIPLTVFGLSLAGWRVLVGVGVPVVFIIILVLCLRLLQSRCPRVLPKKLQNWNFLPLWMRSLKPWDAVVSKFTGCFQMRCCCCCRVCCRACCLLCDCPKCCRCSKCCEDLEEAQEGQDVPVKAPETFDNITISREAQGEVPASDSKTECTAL
In words: Inhibitory effect on 33PO4 uptake into human NaPi-IIb-expressing CHO cells. It is filed as cell-based. Put shortly: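 Stable human NaPi-IIb CHO line (G418-selected), plated and cultured overnight; ³³PO4 added in buffer A and uptake run at room temperature. Cells washed with ice-cold buffer A, then uptake counted by liquid scintillation.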

Setting [1] is: read-out: IC50 against 33PO4 uptake into human NaPi-IIb-expressing cells.

In the case of `COc1cccc(-c2cc(C(F)(F)F)ccc2NC(=O)C2=C(O)[C@@]3(C)CCCN3N(Cc3ccc(OCc4ccncc4)c(F)c3F)C2=O)c1OC` [Example 151, (4aR)-1-[[2,3-Difluoro-4-(pyridin-4-ylmethoxy)phenyl]methyl]-N-[2-(2,3-dimethoxyphenyl)-4-(trifluoromethyl)phenyl]-4-hydroxy-4a-methyl-2-oxo-6,7-dihydro-5H-pyrrolo[1,2-b]pyridazine-3-carboxamide], the pIC50 (read-out: IC50) is 5.08.

On to `C[C@]12CCCN1N(Cc1cccc(F)c1F)C(=O)C(C(=O)Nc1ccc(C(F)(F)F)cc1-c1cnc(Cl)cn1)=C2O` [Example 74], for which the pIC50 (read-out: IC50) was 5.39. In the case of `COCCN(C)CCOCCOCCOCCOc1ccc(CN2C(=O)C(C(=O)Nc3ccc(C(F)(F)F)cc3-c3cc(C(F)(F)F)ncn3)=C(O)C3(CCCC3)N2C)c(F)c1F` [Example 431], the pIC50 under setting [1] is 5.21.

Regarding `CN1N(Cc2cccc(F)c2F)C(=O)C(C(=O)Nc2ccc(C(F)(F)F)cc2-c2cc(C(F)(F)F)ncn2)=C(O)C12CCC2` [Example 300], the pIC50 (read-out: IC50) was 5.03. `Cc1nc(NC(=O)C2=C(O)C3(CCCC3)N(C)N(Cc3cccc(F)c3F)C2=O)ccc1Br` [Example 262]: the negative logarithm of the IC50 (pIC50) (read-out: IC50) was 5.00. Take `CN1N(Cc2ccc(OCCN3CCOCC3)c(F)c2F)C(=O)C(C(=O)Nc2ccc(C(F)(F)F)cc2-c2ccc(C(F)(F)F)nc2)=C(O)C12CCC2` [Example 282]: under “read-out: IC50”, the pIC50 was 4.95.

On to `C[C@]12CCCN1N(Cc1ccc(C#CCN3CCCC3=O)c(F)c1F)C(=O)C(C(=O)Nc1ccc(Br)c(F)c1)=C2O` [Example 131], for which the pIC50 (read-out: IC50) was 4.82. For the molecule `COC(C)(C)CN(C)CCOc1ccc(CN2C(=O)C(C(=O)Nc3ccc(C(F)(F)F)cc3-c3cc(C(F)(F)F)ncn3)=C(O)C3(CCC3)N2C)c(F)c1F` [Example 350], the pIC50 under setting [1] is 4.77. Turning to `C[C@]12CCCN1N(Cc1ccc(C#CCOCCCCO)c(F)c1F)C(=O)C(C(=O)Nc1ccc(C(F)(F)F)cc1-c1ccc(C(F)(F)F)nc1)=C2O` [Example 128], the pIC50 (read-out: IC50) is 4.92.

With `C[C@]12CCCN1N(Cc1ccc(OCCCCCO)c(F)c1F)C(=O)C(C(=O)Nc1ccc(C(F)(F)F)cc1-c1cc(C(F)(F)F)ncn1)=C2O` [Example 162], under “read-out: IC50”, the pIC50 is 4.82. Consider `COCC(C)(C)N(C)CCOc1ccc(CN2C(=O)C(C(=O)Nc3ccc(C(F)(F)F)cc3-c3cc(C(F)(F)F)ncn3)=C(O)C3(CCCC3)N2C)c(F)c1F` [Example 372], for which, under setting [1], the pIC50 was 4.79.

As to `CC(C)(C)[C@H]1C(O)=C(C(=O)Nc2ccc(Cl)cc2-c2ccc(C(F)(F)F)nc2)C(=O)N(Cc2cccc(F)c2F)N1CC(F)(F)F` [Example 247], where the note is “read-out: IC50”, the pIC50 was 5.09. Same read-out and setting: in the case of `C[C@]12CCCN1N(Cc1ccc(F)cc1F)C(=O)C(C(=O)Nc1cc(F)c(Br)c(F)c1)=C2O` [Example 192] it was 4.78; in that of `C[C@]12CCCN1N(Cc1ccc(C#CCCCCC(=O)O)c(F)c1F)C(=O)C(C(=O)Nc1ccc(C(F)(F)F)cc1-c1cncc(C(F)(F)F)c1)=C2O` [Example 119, 7-[4-[[(4aR)-4-Hydroxy-4a-methyl-2-oxo-3-[[4-(trifluoromethyl)-2-[5-(trifluoromethyl)pyridin-3-yl]phenyl]carbamoyl]-6,7-dihydro-5H-pyrrolo[1,2-b]pyridazin-1-yl]methyl]-2,3-difluorophenyl]hept-6-ynoate], 5.04.

Regarding `Cc1c(Cl)ncnc1-c1cc(C(F)(F)F)ccc1NC(=O)C1=C(O)[C@H](C(C)(C)C)N(C)N(Cc2ccc(OCCN3CCOCC3)c(F)c2F)C1=O` [Example 276], the pIC50 (read-out: IC50) was 4.80. `CCOc1cccc(-c2cc(C(F)(F)F)ccc2NC(=O)C2=C(O)[C@@]3(C)CCCN3N(Cc3cccc(F)c3F)C2=O)c1OC` [Example 66]: for the setting “read-out: IC50”, the pIC50 was 4.76. Take `COC(=O)COc1ccc(CN2C(=O)C(C(=O)Nc3ccc(C(F)(F)F)cc3-c3ccc(C(F)(F)F)nc3)=C(O)[C@@]3(C)CCCN23)c(F)c1F` [Example 150]: the pIC50 (read-out: IC50) is 5.05. Consider `CSc1ccc(-c2cc(C(F)(F)F)ccc2NC(=O)C2=C(O)[C@@]3(C)CCCN3N(Cc3ccc(OCCN4CCOCC4)c(F)c3F)C2=O)cn1` [Example 103], for which, under “read-out: IC50”, the pIC50 is 4.96.
